According to ChEMBL document CHEMBL4392832, “Surveying heterocycles as amide bioisosteres within a series of mGlu7 NAMs: Discovery of VU6019278” (Bioorg Med Chem Lett, 2019):

Columns and labels:
[1] = target: Metabotropic glutamate receptor 7 (Rattus norvegicus, UniProt P35400); test: (§1) Negative allosteric modulation of rat mGlu7 receptor expressed in HEK cells co-expressing Galpha15 assessed as reduction in calcium mobilization incubated for 142 secs prior to glutamate addition for 120 secs followed by L-AP4 addition and measured after 40 secs by Fluo-4 AM dye based fluorescence assay; assay type: functional, cell-based
Chain of Metabotropic glutamate receptor 7 (P35400 whole entry): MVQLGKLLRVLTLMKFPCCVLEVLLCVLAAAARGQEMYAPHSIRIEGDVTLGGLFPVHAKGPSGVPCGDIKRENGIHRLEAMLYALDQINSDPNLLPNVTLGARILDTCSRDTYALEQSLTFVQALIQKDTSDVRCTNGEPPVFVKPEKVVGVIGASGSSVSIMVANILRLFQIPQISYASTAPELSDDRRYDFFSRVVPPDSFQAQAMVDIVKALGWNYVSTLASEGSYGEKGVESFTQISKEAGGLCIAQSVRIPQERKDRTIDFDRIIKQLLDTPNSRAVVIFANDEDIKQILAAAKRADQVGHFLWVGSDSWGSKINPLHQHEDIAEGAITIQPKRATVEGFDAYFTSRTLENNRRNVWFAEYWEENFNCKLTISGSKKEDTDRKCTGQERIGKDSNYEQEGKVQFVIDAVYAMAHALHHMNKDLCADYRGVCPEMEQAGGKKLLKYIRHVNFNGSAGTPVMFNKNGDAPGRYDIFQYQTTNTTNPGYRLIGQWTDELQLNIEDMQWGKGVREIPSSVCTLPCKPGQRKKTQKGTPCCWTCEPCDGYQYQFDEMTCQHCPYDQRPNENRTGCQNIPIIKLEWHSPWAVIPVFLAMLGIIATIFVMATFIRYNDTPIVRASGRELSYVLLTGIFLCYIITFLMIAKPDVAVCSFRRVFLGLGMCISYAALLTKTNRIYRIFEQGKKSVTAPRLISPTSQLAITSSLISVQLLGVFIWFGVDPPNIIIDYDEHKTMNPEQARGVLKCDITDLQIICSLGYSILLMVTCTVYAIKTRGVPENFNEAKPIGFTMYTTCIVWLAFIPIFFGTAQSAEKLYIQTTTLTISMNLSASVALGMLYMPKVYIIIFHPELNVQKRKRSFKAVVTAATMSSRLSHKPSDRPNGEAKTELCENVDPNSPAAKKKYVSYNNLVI

[2] = target: Metabotropic glutamate receptor 7 (Rattus norvegicus) (UniProt P35400); test: as §1, with “assessed as minimum L-AP4 response by measuring reduction in” for “assessed as reduction in”, “fluorescence assay relative to L-AP4 alone” for “fluorescence assay”; assay type: functional, cell-based; parameters: scale not given: the % may be the effect or the level left
Chain of Metabotropic glutamate receptor 7 (Rattus norvegicus) (P35400 whole entry): as above

[3] = Total drug level in Sprague-Dawley rat brain at 0.2 mg/kg, iv via cassette dosing measured after 0.25 hrs by LC-MS/MS analysis; assay type: ADME, organism-based; conditions: read-out: Drug uptake
[4] = target: Metabotropic glutamate receptor 1 (Homo sapiens, UniProt Q13255); test: Negative allosteric modulation of mGlu1 receptor (unknown origin)
[5] = Unbound brain to plasma concentration ratio in rat; assay type: ADME, cell-free; conditions: read-out: K(p,uu,brain)
[6] = Free drug level in Sprague-Dawley rat brain at 0.2 mg/kg, iv via cassette dosing measured after 0.25 hrs by LC-MS/MS analysis; assay type: ADME, organism-based; conditions: in vivo
[7] = Brain to plasma permeability coefficient, Kp of compound in rat; assay type: ADME, cell-free
[8] = target: Metabotropic glutamate receptor 8 (Homo sapiens, UniProt O00222); test: Negative allosteric modulation of mGlu8 receptor (unknown origin)
Chain of Metabotropic glutamate receptor 8 (O00222 whole entry): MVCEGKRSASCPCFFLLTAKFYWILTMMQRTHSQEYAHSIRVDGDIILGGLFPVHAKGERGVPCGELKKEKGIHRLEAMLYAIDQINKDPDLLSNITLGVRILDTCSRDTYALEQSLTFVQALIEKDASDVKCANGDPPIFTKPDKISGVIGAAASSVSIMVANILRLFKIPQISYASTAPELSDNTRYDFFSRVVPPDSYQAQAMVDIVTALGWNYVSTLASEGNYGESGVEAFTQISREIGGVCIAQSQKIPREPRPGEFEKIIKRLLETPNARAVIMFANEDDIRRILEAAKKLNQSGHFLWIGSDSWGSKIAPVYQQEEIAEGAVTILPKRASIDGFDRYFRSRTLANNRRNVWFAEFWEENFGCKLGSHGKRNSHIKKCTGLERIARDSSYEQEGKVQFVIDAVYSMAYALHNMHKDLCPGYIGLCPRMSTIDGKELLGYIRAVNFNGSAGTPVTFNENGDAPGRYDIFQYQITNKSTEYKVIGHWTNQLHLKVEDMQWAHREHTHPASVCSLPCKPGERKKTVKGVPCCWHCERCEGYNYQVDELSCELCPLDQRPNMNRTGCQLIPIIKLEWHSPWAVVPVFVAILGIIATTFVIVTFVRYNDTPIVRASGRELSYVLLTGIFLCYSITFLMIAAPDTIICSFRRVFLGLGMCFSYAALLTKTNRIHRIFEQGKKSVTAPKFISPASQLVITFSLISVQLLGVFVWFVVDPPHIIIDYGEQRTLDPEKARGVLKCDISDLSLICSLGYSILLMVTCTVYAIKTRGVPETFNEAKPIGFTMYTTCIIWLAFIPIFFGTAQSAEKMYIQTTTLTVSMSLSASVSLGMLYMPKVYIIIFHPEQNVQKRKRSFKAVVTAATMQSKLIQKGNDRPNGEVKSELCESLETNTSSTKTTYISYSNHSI

[9] = target: Metabotropic glutamate receptor 3 (Homo sapiens, UniProt Q14832); test: Negative allosteric modulation of mGlu3 receptor (unknown origin)
Chain of Metabotropic glutamate receptor 3 (Q14832 whole entry): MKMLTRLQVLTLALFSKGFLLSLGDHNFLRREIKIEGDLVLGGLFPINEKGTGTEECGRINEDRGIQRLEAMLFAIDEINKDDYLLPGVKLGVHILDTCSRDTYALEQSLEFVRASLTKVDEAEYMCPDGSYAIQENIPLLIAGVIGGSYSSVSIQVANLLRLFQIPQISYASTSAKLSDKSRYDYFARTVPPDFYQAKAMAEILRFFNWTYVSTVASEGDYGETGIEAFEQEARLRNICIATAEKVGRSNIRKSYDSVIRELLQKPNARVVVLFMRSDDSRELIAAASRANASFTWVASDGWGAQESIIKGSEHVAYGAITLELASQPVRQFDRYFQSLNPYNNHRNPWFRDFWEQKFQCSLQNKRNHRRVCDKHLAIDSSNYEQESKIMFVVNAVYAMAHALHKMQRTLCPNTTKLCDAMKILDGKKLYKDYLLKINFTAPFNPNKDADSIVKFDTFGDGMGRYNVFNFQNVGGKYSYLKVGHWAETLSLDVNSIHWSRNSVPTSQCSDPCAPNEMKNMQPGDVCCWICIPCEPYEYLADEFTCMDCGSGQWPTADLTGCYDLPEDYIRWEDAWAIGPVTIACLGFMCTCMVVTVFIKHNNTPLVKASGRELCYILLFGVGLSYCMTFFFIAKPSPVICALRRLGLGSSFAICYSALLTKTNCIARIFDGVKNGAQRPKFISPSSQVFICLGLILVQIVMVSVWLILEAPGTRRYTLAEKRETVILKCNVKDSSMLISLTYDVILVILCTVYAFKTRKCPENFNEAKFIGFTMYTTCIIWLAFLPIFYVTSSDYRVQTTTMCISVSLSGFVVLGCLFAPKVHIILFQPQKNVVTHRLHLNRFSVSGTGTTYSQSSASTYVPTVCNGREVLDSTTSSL

[10] = Protein binding in rat plasma assessed as unbound fraction at 5 uM measured after 4 hrs by LC-MS/MS analysis; assay type: ADME, cell-free
[11] = target: Metabotropic glutamate receptor 5 (Homo sapiens, UniProt P41594); test: Negative allosteric modulation of mGlu5 receptor (unknown origin)
[12] = target: Metabotropic glutamate receptor 4 (Homo sapiens, UniProt Q14833); test: Negative allosteric modulation of mGlu4 receptor (unknown origin)
[13] = target: Metabotropic glutamate receptor 2 (Homo sapiens, UniProt Q14416); test: Negative allosteric modulation of mGlu2 receptor (unknown origin)
Chain of Metabotropic glutamate receptor 2 (Q14416 whole entry): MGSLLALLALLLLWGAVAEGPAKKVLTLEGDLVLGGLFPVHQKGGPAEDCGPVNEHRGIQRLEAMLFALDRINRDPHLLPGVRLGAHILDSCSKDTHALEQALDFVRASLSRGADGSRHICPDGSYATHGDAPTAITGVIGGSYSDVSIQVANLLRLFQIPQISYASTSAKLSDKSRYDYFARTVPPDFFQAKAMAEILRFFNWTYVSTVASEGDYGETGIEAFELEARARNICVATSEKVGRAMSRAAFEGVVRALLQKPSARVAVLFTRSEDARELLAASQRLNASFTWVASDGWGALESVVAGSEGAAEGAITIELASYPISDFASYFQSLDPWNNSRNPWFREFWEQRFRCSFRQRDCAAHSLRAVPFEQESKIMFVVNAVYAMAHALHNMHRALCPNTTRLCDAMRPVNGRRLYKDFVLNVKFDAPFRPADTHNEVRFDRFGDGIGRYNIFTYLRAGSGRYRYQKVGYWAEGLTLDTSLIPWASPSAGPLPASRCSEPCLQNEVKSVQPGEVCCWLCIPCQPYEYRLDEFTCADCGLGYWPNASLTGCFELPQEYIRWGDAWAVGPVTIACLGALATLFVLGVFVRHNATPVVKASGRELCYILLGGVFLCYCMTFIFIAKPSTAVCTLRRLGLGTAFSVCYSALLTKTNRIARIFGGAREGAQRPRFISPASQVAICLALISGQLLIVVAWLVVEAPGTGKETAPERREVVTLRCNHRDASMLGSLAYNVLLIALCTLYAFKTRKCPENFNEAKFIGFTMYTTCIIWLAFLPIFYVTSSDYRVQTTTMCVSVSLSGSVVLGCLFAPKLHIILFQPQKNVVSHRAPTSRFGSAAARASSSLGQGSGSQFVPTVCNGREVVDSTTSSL

[14] = Protein binding in rat brain assessed as unbound fraction at 5 uM measured after 6 hrs by LC-MS/MS analysis; assay type: ADME, tissue-based
[15] = target: Metabotropic glutamate receptor 6 (Homo sapiens, UniProt O15303); test: Negative allosteric modulation of mGlu6 receptor (unknown origin)
Chain of Metabotropic glutamate receptor 6 (O15303 whole entry): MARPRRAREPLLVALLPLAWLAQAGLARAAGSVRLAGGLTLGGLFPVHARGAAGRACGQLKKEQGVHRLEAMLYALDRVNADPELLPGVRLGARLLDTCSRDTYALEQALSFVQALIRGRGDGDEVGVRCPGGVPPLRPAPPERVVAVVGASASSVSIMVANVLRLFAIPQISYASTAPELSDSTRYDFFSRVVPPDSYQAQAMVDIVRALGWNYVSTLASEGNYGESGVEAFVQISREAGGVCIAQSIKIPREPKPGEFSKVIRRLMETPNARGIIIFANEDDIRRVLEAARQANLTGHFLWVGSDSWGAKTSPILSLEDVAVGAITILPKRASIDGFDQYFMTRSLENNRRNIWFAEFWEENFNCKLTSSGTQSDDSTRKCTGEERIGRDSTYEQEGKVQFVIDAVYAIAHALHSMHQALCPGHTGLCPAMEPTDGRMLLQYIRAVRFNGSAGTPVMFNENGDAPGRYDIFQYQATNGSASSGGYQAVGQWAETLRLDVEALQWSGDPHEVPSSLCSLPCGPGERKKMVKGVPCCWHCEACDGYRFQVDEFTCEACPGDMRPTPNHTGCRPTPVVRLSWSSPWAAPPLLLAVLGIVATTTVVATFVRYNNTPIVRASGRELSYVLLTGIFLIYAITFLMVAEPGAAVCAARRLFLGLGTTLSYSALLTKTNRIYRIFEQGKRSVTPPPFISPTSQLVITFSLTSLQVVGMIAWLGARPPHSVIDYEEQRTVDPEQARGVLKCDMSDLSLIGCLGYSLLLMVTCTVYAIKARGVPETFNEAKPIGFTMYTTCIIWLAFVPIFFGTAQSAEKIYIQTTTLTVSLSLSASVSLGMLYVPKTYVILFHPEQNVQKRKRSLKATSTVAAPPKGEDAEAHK

Row | Compound | IC50 ([1]; read-out: IC50) | Activity [2] | other results
1 | COc1ccc(-c2cn(-c3cc(OC(F)(F)F)ccc3-n3cncn3)nn2)cc1OC | ≥ 10 µM | 32.4% | –
2 | COc1ccc(-c2ccc3nnc(-c4cc(OC(F)(F)F)ccc4-n4cncn4)n3n2)cc1OC | – | – | IC50 [1]: Not Active
3 | COc1ccc(-c2nnc3sc(-c4cc(OC(F)(F)F)ccc4-n4cncn4)nn23)cc1OC | – | – | IC50 [1]: Not Active
4 | COc1ccc(-c2nnc(-c3cc(OC(F)(F)F)ccc3N3CCN(C)CC3)o2)cc1OC | > 30 µM | – | –
5 | COc1ccc(-c2noc(-c3cc(OC(F)(F)F)ccc3-n3cncn3)n2)cc1OC | 1.32 µM | 14.5% | –
6 | FC(F)(F)Oc1ccc(-n2cncn2)c(-c2nnc(-c3ccc4c(c3)OCO4)o2)c1 | > 30 µM | – | –
7 | COc1cc(-c2nnc(-c3cc(OC(F)(F)F)ccc3-n3cncn3)o2)ccn1 | ≥ 10 µM | 68.9% | –
8 | COc1cc(F)c(-c2nnc(-c3cc(OC(F)(F)F)ccc3-n3cncn3)o2)cc1OC | ≥ 10 µM | 72.8% | –
9 | COc1ccc(-c2nnnn2-c2cc(OC(F)(F)F)ccc2-n2cncn2)cc1OC | – | – | IC50 [1]: Not Active
10 | COc1ccc(-c2nnc(-c3cc(OC(F)(F)F)ccc3-n3ccnc3)o2)cc1OC | 0.57 µM | 6.3% | concentration at 0.25 h [3]: 456 nM; IC50 [4]: > 10 µM; Kp uu [5]: 0.65; Drug uptake(free) [6]: 6 nM; Kp [7]: 4.9; IC50 [8]: > 10 µM; IC50 [9]: > 10 µM; Fu ([10]; 4 h, 5 µM): 0.1; IC50 [11]: > 10 µM; IC50 [12]: > 10 µM; IC50 [13]: > 10 µM; fraction unbound at 6 h, 5 µM [14]: 0.013; IC50 [15]: > 10 µM
11 | COc1cc(-c2nnc(-c3cc(OC(F)(F)F)ccc3-n3cncn3)o2)ccc1OCC1CC1 | 1.31 µM | 13.2% | Kp uu [5]: 0.43; Kp [7]: 2; fraction unbound at 4 h, 5 µM [10]: 0.038
12 | FC(F)(F)Oc1ccc(-n2cncn2)c(-c2nnc(-c3ccc4c(c3)OC(F)(F)O4)o2)c1 | > 30 µM | – | –
13 | COc1ccc(-c2nnc(-c3cc(OC(F)(F)F)ccc3-c3ccnnc3)o2)cc1OC | ≥ 10 µM | 27.6% | –
14 | COc1ccc(-c2nnc(-c3cc(OC(F)(F)F)ccc3N3CCCC3)o2)cc1OC | > 30 µM | – | –
15 | COc1cc(-c2nnc(-c3cc(OC(F)(F)F)ccc3-n3cncn3)o2)ccc1OC1CCC1 | 1.55 µM | 10.4% | –
16 | COc1ccc(-c2nnc(-c3cc(OC(F)(F)F)ccc3-c3cn[nH]c3)o2)cc1OC | 2.24 µM | 10.3% | –
17 | COc1ccc(-c2nc(-c3cc(OC(F)(F)F)ccc3-n3cncn3)no2)cc1OC | 2.39 µM | 8.4% | –
18 | COc1ccc(-c2nnc(-c3cc(OC(F)(F)F)ccc3-n3cncn3)o2)cc1OC | 1.58 µM | 7.1% | –
19 | COc1cc(-c2nnc(-c3cc(OC(F)(F)F)ccc3-n3cncn3)o2)cc(F)c1OC | > 30 µM | – | –
20 | COc1ccc(-c2c[nH]c(-c3cc(OC(F)(F)F)ccc3-n3cncn3)n2)cc1OC | ≥ 10 µM | 34.2% | –
21 | COc1ccc(-c2nnc(-c3cc(OC(F)(F)F)ccc3-c3ccncc3)o2)cc1OC | ≥ 10 µM | 27.9% | –
22 | COc1ccc(-c2nn3cc(-c4cc(OC(F)(F)F)ccc4-n4cncn4)nc3s2)cc1OC | – | – | IC50 [1]: Not Active
23 | COc1ccc(-c2nnc(-c3cc(OC(F)(F)F)ccc3-c3cnn(C)c3)o2)cc1OC | > 30 µM | – | –
24 | COc1ccc(-c2ccn3c(-c4cc(OC(F)(F)F)ccc4-n4cncn4)nnc3c2)cc1OC | – | – | IC50 [1]: Not Active
25 | COc1ccc(-c2nnc(-c3cc(OC(F)(F)F)ccc3-c3cccnc3)o2)cc1OC | > 30 µM | – | –
26 | COc1cc(-c2nnc(-c3cc(OC(F)(F)F)ccc3-n3cncn3)o2)ccc1F | > 30 µM | – | –
27 | COc1ccc(-c2nnc(-c3cc(OC(F)(F)F)ccc3N3CCOCC3)o2)cc1OC | 1.18 µM | 23.1% | –

More lines, main results first:

Row | IC50 ([1]; read-out: IC50) | Activity [2] | Compound | other results
28 | > 30 µM | – | COc1ccc(-c2nnc(-c3cc(OC(F)(F)F)ccc3-n3cncn3)o2)c(F)c1F | –
29 | > 30 µM | – | COc1ccc(-c2nnc(-c3cc(OC(F)(F)F)ccc3-n3cncn3)o2)cn1 | –
30 | > 30 µM | – | FC(F)(F)Oc1ccc(-n2cncn2)c(-c2nnc(-c3ccc4c(c3)OCCO4)o2)c1 | –
31 | 4.38 µM | 13.5% | COc1cc(-c2nnc(-c3cc(OC(F)(F)F)ccc3-n3cncn3)o2)cnc1OC | –
32 | 7.63 µM | 21.1% | COc1ccc(-c2coc(-c3cc(OC(F)(F)F)ccc3-n3cncn3)n2)cc1OC | –
33 | > 30 µM | – | COc1ccc(-c2nnc(-c3cc(OC(F)(F)F)ccc3-n3cncn3)o2)cc1F | –
34 | 5.86 µM | 65.4% | COc1ccc(-c2nnc(-c3cc(OC(F)(F)F)ccc3N3CCCCC3)o2)cc1OC | –
35 | – | 20.6% | COc1ccc(-c2nnc(-c3cc(OC(F)(F)F)ccc3-c3ccnn3C)o2)cc1OC | –
36 | 3.53 µM | 49.2% | COc1ccc(-c2nnc(-c3cc(OC(F)(F)F)ccc3-c3cscn3)o2)cc1OC | –
37 | 2.08 µM | 36.5% | COc1ccc(-c2cnc(-c3cc(OC(F)(F)F)ccc3-n3cncn3)o2)cc1OC | –
38 | ≥ 10 µM | 41.5% | COc1ccc(-c2nsc(-c3cc(OC(F)(F)F)ccc3-n3cncn3)n2)cc1OC | –
